Laboratory results reported in patent EP0535626A1, “Use of 4-amino-1-(2-pyridyl)piperidines as anti-convulsivant and anti-epileptic agents” (SANOFI, priority 1991, dated 1993).

Columns and labels:
[1] = test system: convulsions provoquées par électrochoc; experiment: Electroshock-induced convulsions test in mice; type: in vivo, souris; settings: Mus musculus, ip, 0.5 h; Swiss female mice, intraperitoneal 30 minutes before the shock (12 volts, 0,4 secondes, corneal electrodes); read-out: DE₅₀ (doses protégeant 50% des animaux)
Text: (§1) La nouvelle activité anticonvulsivante des composés de formule (I), a été mise en évidence en évaluant les effets des composés (I) dans le test des convulsions provoquées par électrochoc chez la souris et dans le test des convulsions provoquées par le pentylénététrazole chez la souris selon la méthode décrite par C.S. Goodman, M. Singh Grewal, W.C. Brown et E.A. Swinyard dans J. Pharmacol. Exp. Ther. 108, 168-176, (1953).
(§2) Pour ces tests on a utilisé des souris Swiss femelles d'un poids corporel de 22 à 26 g, réparties en lot de 10 animaux chacun. Une semaine avant l'expérimentation, chaque lot de 10 a été mis en cage, gardé dans une pièce à température constante (21°C ± 1°C), en cycle jour/nuit, avec nourriture et boisson à volonté. Les produits de formule (I) à tester ainsi que le pentylénététrazole ont été mis en solution dans de l'eau distillée. Le volume d'injection des produits utilisés a été de 0,4 ml pour 20 g de poids corporel. • · Convulsions provoquées par le pentylénététrazole. Les composés de formule (I) ont été administrés par voie intrapéritonéale 30 minutes avant l'administration par voie intrapéritonéale de 130 mg/kg de pentylénététrazole (dose nécessaire pour que 80% des souris contrôlées présentent une crise convulsive). […]

[2] = test system: convulsions provoquées par le pentylénététrazole; experiment: Pentylenetetrazole-induced convulsions test in mice; type: in vivo, souris; settings: Mus musculus, ip, 0.5 h; Swiss female mice, intraperitoneal 30 minutes before 130 mg/kg pentylénététrazole intraperitoneal; read-out: DE₅₀ (doses protégeant 50% des animaux)
Text: as §1, §2

NC1CCN(c2cccc(Cl)n2)CC1 [4-amino-1-(6-chloro-2-pyridyl)pipéridine]
ED50 [1]: < 3 mg/kg | ED50 [2]: < 10 mg/kg
